This passage reports IC50 results from patent US8637702B2, “Derivatives of N-hydroxybenzamide for treating HIV infections” (Italfarmaco S.p.A., priority 2009, dated 2014).

Experiment [1] has as its target T1, HDAC6 (Homo sapiens, UniProt Q9UBN7).
T1 sequence (Q9UBN7 1-1215): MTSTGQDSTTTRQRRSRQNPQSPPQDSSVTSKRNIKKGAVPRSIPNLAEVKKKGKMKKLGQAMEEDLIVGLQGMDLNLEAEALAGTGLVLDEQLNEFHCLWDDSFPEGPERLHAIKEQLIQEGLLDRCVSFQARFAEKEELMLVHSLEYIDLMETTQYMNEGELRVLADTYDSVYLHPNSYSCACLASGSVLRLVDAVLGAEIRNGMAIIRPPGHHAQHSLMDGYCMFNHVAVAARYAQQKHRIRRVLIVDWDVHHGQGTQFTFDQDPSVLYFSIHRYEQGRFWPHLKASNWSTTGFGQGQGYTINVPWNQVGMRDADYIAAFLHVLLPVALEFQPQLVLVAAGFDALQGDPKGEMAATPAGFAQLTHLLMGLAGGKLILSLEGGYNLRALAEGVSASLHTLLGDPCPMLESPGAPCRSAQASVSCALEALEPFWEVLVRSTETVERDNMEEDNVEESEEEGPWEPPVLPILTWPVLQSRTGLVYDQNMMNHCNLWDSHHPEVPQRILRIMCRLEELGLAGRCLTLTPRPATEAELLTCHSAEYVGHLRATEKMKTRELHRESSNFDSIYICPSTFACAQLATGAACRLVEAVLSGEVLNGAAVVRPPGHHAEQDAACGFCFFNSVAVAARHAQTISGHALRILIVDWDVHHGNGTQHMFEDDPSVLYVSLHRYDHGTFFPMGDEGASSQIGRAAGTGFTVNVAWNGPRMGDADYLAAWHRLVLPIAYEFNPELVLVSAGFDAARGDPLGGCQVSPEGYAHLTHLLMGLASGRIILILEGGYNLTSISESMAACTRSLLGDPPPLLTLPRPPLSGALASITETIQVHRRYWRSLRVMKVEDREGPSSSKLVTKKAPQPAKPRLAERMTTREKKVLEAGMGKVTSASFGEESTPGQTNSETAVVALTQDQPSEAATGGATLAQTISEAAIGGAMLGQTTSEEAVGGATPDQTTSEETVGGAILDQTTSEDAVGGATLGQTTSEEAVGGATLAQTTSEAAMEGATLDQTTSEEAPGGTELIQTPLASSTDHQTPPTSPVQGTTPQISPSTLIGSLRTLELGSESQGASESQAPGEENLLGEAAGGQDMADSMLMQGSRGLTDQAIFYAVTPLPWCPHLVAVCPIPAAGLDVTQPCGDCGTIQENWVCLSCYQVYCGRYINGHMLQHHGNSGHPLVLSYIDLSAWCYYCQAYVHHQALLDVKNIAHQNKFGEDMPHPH
Nature of the experiment: Inhibition of histone deacetylase isoforms, HDAC6.
Method: (§1) Recombinant human enzymes were acquired from BPS Biosciences (CA, USA). Isoforms of Class I HDAC1, 2, 3; HDAC6, 10 of Class IIb and Class IV HDAC11 were tested using the Fluor-de-Lys fluorogenic synthetic substrate (Enzo Life Sciences, Plymouth Meeting, Pa.). […] The recombinant human HDAC8 assay was performed using HDAC8 Fluorimetric Drug Discovery Kit (Enzo) according to the manufacturer instructions. Each inhibitor was dissolved in DMSO and then further diluted in an assay buffer. […] The assays were performed by pre-incubating each enzyme with the inhibitors for 15 minutes at 37° C. The reaction was started by adding the substrate at 37° C. and allowed to proceed for 60 minutes. The fluorescent signal was generated by adding 50 μL of a twice concentrated developer solution 2 (Enzo) containing trichostatin A 4 μM.

Experiment [2] addresses T2, HDAC8 (Homo sapiens, UniProt Q9BY41).
T2 sequence (Q9BY41 1-377): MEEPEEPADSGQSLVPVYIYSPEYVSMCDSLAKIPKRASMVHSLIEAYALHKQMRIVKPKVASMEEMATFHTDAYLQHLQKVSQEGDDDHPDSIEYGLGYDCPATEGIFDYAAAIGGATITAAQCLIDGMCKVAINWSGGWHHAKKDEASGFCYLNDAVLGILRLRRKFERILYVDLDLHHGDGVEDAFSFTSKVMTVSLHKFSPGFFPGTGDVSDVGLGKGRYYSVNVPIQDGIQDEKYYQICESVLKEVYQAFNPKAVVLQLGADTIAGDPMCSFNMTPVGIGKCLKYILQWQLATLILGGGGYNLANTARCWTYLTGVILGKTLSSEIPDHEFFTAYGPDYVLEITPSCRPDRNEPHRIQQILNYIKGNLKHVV
The experiment is described as follows: Inhibition of histone deacetylase isoforms, HDAC8.
Method: as §1

Experiment [3] addresses T3, HDAC11 (Homo sapiens, UniProt Q96DB2).
T3 sequence (Q96DB2 1-347): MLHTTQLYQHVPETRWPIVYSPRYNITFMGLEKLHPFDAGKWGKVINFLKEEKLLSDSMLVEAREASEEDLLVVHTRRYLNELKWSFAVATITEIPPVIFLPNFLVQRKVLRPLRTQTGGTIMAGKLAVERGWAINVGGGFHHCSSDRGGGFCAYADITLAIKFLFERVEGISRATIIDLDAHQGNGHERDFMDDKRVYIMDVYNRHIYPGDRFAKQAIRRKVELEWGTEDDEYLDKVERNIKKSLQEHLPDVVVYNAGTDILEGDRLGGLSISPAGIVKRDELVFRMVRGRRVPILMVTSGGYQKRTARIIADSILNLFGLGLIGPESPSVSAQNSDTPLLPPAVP
Nature of the experiment: Inhibition of histone deacetylase isoforms, HDAC11.
Method: (§2) Recombinant human enzymes were acquired from BPS Biosciences (CA, USA). Isoforms of Class I HDAC1, 2, 3; HDAC6, 10 of Class IIb and Class IV HDAC11 were tested using the Fluor-de-Lys fluorogenic synthetic substrate (Enzo Life Sciences, Plymouth Meeting, Pa.). […] Each inhibitor was dissolved in DMSO and then further diluted in an assay buffer. […] The assays were performed by pre-incubating each enzyme with the inhibitors for 15 minutes at 37° C. The reaction was started by adding the substrate at 37° C. and allowed to proceed for 60 minutes. The fluorescent signal was generated by adding 50 μL of a twice concentrated developer solution 2 (Enzo) containing trichostatin A 4 μM.

Experiment [4] addresses T4, HDAC7 (Homo sapiens, UniProt Q8WUI4).
T4 sequence (Q8WUI4 1-952): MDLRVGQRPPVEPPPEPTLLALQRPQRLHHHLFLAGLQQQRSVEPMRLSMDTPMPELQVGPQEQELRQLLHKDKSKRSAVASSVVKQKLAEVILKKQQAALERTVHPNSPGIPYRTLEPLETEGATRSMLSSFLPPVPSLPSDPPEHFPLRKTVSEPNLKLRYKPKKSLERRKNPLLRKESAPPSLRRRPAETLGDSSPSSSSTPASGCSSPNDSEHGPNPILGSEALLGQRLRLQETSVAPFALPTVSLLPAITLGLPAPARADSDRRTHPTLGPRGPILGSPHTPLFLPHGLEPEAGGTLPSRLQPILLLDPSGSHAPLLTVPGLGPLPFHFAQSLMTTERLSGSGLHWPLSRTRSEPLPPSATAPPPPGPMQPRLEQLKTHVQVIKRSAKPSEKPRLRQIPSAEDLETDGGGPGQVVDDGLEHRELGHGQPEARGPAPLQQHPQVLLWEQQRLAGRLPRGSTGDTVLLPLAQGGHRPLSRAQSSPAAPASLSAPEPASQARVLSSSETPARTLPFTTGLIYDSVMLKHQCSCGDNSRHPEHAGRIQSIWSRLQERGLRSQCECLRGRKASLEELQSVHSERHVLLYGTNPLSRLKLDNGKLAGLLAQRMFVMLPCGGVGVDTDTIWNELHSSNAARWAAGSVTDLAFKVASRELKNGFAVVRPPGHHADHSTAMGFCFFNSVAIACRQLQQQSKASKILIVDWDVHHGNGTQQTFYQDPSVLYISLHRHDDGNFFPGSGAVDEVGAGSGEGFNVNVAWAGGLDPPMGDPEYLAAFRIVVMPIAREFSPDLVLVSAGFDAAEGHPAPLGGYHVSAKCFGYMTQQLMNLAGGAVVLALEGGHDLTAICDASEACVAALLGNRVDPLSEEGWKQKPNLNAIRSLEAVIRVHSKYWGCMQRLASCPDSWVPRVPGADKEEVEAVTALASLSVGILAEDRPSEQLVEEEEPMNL
The experiment is described as follows: Inhibition of histone deacetylase isoforms, HDAC7.
Method: as §1

The target in experiment [5] is HDAC1 (Homo sapiens, UniProt Q13547). Nature of the experiment: Inhibition of histone deacetylase isoforms, HDAC1.
HDAC1, sequence (Q13547 whole entry, canonical isoform): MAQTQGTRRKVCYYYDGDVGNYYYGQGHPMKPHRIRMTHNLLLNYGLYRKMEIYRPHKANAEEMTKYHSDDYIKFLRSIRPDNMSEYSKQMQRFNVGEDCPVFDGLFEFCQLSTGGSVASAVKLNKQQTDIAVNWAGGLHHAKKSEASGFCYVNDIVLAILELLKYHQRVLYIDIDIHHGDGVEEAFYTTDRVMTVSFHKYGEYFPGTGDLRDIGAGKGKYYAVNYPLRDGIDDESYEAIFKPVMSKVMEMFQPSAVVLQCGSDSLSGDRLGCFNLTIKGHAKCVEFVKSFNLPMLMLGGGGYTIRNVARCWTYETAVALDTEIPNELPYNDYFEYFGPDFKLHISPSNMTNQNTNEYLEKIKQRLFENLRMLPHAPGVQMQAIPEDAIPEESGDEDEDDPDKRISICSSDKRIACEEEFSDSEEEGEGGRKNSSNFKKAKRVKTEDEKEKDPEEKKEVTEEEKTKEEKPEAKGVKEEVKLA
Method: as §2

Each structure is given as a SMILES string.

In general, IC50 refers to the point on the concentration scale where inhibition reaches its midpoint. Lower therefore signals higher potency. `O=C(NO)c1ccc(NC(=O)[C@H](Cc2ccc3ccccc3c2)NC(=O)c2ccccc2)cc1` [Compound g, 4-(2(S)-benzoylamino-3-naphtalen-2-yl-propionylamino)-N-hydroxy-benzamide]: the IC50 amounted to 3620 nM in experiment [1]; 492 nM in experiment [2]; 441 nM in experiment [3]; 2.02 µM in experiment [4]; 54.7 nM in experiment [5].
For `O=C(NO)c1ccc(NC(=O)[C@H](Cc2ccc3ccccc3c2)NC(=O)c2ccc3c(c2)OCO3)cc1` [Compound t, benzo[1,3]dioxole-5-carboxylic acid [1(S)-(4-hydroxycarbamoyl-phenylcarbamoyl)-2-naphtalen-2-yl-ethy]-amide] the same measures were 618 nM, 162 nM, 336 nM, 8.62 µM and 71.5 nM.
